Measured values reported in patent publication US4521339A, “Ansatrienols” (Nisshin Flour Milling Co., Ltd., priority 1981, dated 1985).
Values after ≈ are worked out from the molar mass of the structure shown. “Also recorded” adds a separate entry of the source.

What was measured:
Solubility in solvents = details: for Solubility in solvents: organic solvents; for Soluble in (continued line of the solubility entry): organic solvents in which the substance is soluble, continuation line
[1] = test system: several types of tumor cells; test: Growth inhibition of several types of tumor cells; format: cell-based; details: statement in words
Acute toxicity = details: mouse, in vivo, ip
[2] = test system: Penicillium chrysogenum (IAM 7106); test: Antimicrobial activity (MIC, dilution method); format: cell-based; details: IAM7106, 30° C., 72 hours, read-out: MIC (minimum inhibitory concentration)
Experimental: (§1) The MIC (minimum inhibitory concentration) value of the T-23-I substance was determined by cultivation of a microorganism in a medium containing 1.0% glucose and 0.2% malt extract at 30° C. for 72 hours by a dilution method.
(§2) The MIC (minimum inhibitory concentration) value of the T-23-II substance was determined by cultivation of a microorganism in a medium containing 1.0% glucose and 0.2% malt extract at 30° C. for 72 hours by a dilution method.

[3] = test system: Saccharomyces cerevisiae (IFO 0304); test: Antimicrobial activity (MIC, dilution method); format: cell-based; details: IFO0304, 30° C., 72 hours, read-out: MIC (minimum inhibitory concentration)
Experimental: as §1, §2

[4] = test system: Saccharomyces rouxii (IFO 0505); test: Antimicrobial activity (MIC, dilution method); format: cell-based; details: Zygosaccharomyces rouxii, IFO0505, 30° C., 72 hours, read-out: MIC (minimum inhibitory concentration)
Experimental: as §1, §2

[5] = test system: Mucor pusillus (IAM 6122); test: Antimicrobial activity (MIC, dilution method); format: cell-based; details: Rhizomucor pusillus, IAM6122, 30° C., 72 hours, read-out: MIC (minimum inhibitory concentration)
Experimental: as §1, §2

[6] = test system: Candida utilis (IFO 0396); test: Antimicrobial activity (MIC, dilution method); format: cell-based; details: Williopsis jadinii, IFO0396, 30° C., 72 hours, read-out: MIC (minimum inhibitory concentration)
Experimental: as §1, §2

[7] = test system: Aspergillus japonicus (IAM 2016); test: Antimicrobial activity (MIC, dilution method); format: cell-based; details: IAM2016, 30° C., 72 hours, read-out: MIC (minimum inhibitory concentration)
Experimental: as §1, §2

mouse leukemia P-388 = test: Anti-tumor activity against mouse leukemia P-388 (life span of mice); format: in vivo; details: CDF1 mice
Experimental: (§3) To six CDF1 male mice (20±1 g) of one group, 10^6 ascites tumor P-388 cells were transplanted intraperitoneally. The test material was administered first 24 hours and then 120 hours after transplantation. The dose of the test material suspended in gum arabic was 0.2 ml for each time. Increased life span was expressed in terms of % of the life span of the control group (administered with a gum arabic suspension).
as §3, with “after transplantation of” for “and”, “six times every 24 hours.” for “120 hours after transplantation.”

L-5178Y lymphoma cells = test: Anti-tumor activity (in vitro) against L-5178Y lymphoma cells; format: cell-based; details: statement in words
Experimental: The cell growth was observed by a dilution method using an Eagle-NEM medium (Nissui) supplemented with 10% horse serum and 100 mg/l asparagine and cultivated at 37° C. for 120 hours. The T-23-I substance in ethanol solution was added to an assay system.
The cell growth was observed by a dilution method using an Eagle-NEM medium (Nissui) supplemented with 10% horse serum and 100 mg/l asparagine and cultivated at 37° C. for 120 hours. The T-23-II substance in ethanol solution was added to an assay system.

mouse sarcoma 180 = test: Anti-tumor activity against mouse sarcoma 180 (life span of mice); format: in vivo; details: ICR mice
Experimental: To six ICR male mice (25±1 g) of one group, 10^6 sarcoma 180 ascites tumor cells were transplanted intraperitoneally. The test material was administered first three hours after transplantation and then four times every 24 hours. The dose of the test material (T-23-II substance) suspended in gum arabic was 0.2 ml for each time. Increased life span was expressed in terms of % of the life span of the control group (administered with a gum arabic suspension).

Row | SMILES | Solubility in solvents (Solubility in solvents) | Soluble in (continued line of the solubility entry) (Solubility in solvents) | Solubility in water (Solubility in solvents) | inhibition of the growth of several types of tumor cells [1] | LD50 (Acute toxicity) [mg/kg] | MIC [2] [µg/mL] | MIC [3] [µg/mL] | MIC [4] [µg/mL] | MIC [5] [µg/mL] | MIC [6] [µg/mL] | MIC [7] [µg/mL] | inhibition of the growth of L-5178Y lymphoma cells (L-5178Y lymphoma cells) | other results
1 | COC1C=CC=CC=CCC(O)C(C)C(O)C(C)=CCCc2cc(O)cc(c2O)NC(=O)C1 (stereo not shown) [T-23-IV substance] | Soluble in chloroform, ethyl acetate, methanol; also recorded: Sparingly soluble in benzene and toluene; also recorded: Insoluble in petroleum ether and water | ethanol, acetone and acetonitrile | Insoluble | some significant effect to inhibit the growth of several types of tumor cells | ~280 |  |  |  |  |  |  |  | 
2 | COC1C=CC=CC=CCC(OC(=O)[C@@H](C)NC(=O)C2CCCCC2)C(C)C(O)C(C)=CCCC2=CC(=O)C=C(NC(=O)C1)C2=O (stereo partly shown) [T-23-I substance] | soluble in higher alcohols, acetone, chloroform, benzene and ethylacetate; also recorded: Soluble in methanol, ethanol, acetone; also recorded: Sparingly soluble in benzene and ether; also recorded: Insoluble in water, petroleum ether and hexane | chloroform and ethyl acetate | Insoluble in water | some significant effect to inhibit the growth of several types of tumor cells | 55.9 | 8 (≈ 12.6 µM) | 4 (≈ 6.28 µM) | 4 (≈ 6.28 µM) | 12.5 (≈ 19.6 µM) | 4 (≈ 6.28 µM) | 12.5 (≈ 19.6 µM) | effective to inhibit the growth of L-5178Y lymphoma cells | Increased life span T/C (mouse leukemia P-388; 0.75 mg/kg/day × 2 times): 105.7%; Increased life span T/C (mouse leukemia P-388; 1.5 mg/kg/day × 2 times): 107.3%; Increased life span T/C (mouse leukemia P-388; 3 mg/kg/day × 2 times): 105.7%; Increased life span T/C (mouse leukemia P-388; 6 mg/kg/day × 2 times): 120.2%; Increased life span T/C (mouse leukemia P-388; 12 mg/kg/day × 2 times): 123.3%; Increased life span T/C (mouse leukemia P-388; 24 mg/kg/day × 2 times): 56.0%
3 | COC1C=CC=CC=CCC(O)C(C)C(O)C(C)=CCCC2=CC(=O)C=C(NC(=O)C1)C2=O (stereo not shown) [T-23-III substance] | Soluble in chloroform, ethyl acetate, methanol; also recorded: Sparingly soluble in ethyl ether; also recorded: Insoluble in petroleum ether and water | toluene | Insoluble | some significant effect to inhibit the growth of several types of tumor cells | ~250 |  |  |  |  |  |  |  | 
4 | COC1C=CC=CC=CCC(OC(=O)[C@@H](C)NC(=O)C2CCCCC2)C(C)C(O)C(C)=CCCc2cc(O)cc(c2O)NC(=O)C1 (stereo partly shown) [T-23-II substance] | soluble in higher alcohols, acetone, chloroform, benzene and ethylacetate; also recorded: Soluble in chloroform, methanol, ethanol; also recorded: Sparingly soluble in benzene and ether; also recorded: Insoluble in water, petroleum ether and hexane | acetone and ethyl acetate | Insoluble in water | some significant effect to inhibit the growth of several types of tumor cells | 85.5 | 12.5 (≈ 19.6 µM) | 4 (≈ 6.26 µM) | 4 (≈ 6.26 µM) | 12.5 (≈ 19.6 µM) | 4 (≈ 6.26 µM) | 12.5 (≈ 19.6 µM) | effective to inhibit the growth of L-5178Y lymphoma cells | Increased life span T/C (mouse sarcoma 180; 0.7 mg/kg/day × 4 times): 109.6%; Increased life span T/C (mouse sarcoma 180; 2.2 mg/kg/day × 4 times): 95.6%; Increased life span T/C (mouse sarcoma 180; 6.6 mg/kg/day × 4 times): 115.0%; Increased life span T/C (mouse sarcoma 180; 20 mg/kg/day × 4 times): 138.7%; Increased life span T/C (mouse leukemia P-388; 1.25 mg/kg/day × 6 times): 130.0%; Increased life span T/C (mouse leukemia P-388; 2.5 mg/kg/day × 6 times): 109.9%; Increased life span T/C (mouse leukemia P-388; 5 mg/kg/day × 6 times): 127.1%; Increased life span T/C (mouse leukemia P-388; 10 mg/kg/day × 6 times): 120.2%; Increased life span T/C (mouse leukemia P-388; 20 mg/kg/day × 6 times): 135.7%
